The values that follow come from patent US10975068B2, “6-aminopyridin-3-yl thiazoles as modulators of RORγT” (Janssen Pharmaceutica NV, priority 2016, dated 2021).

Test [1] addresses human RORγt ligand binding domain (RORγt LBD) (Homo sapiens (Human), UniProt P51449). The test can be described thus: RORγt ThermoFluor® assay (thermal shift binding). The following applies: read-out: ThermoFluor® Assay, Kd. From the text: ThermoFluor® is a fluorescence based assay that estimates ligand binding affinities by measuring the effect of a ligand on protein thermal stability (Pantoliano, M. W., Petrella, E. C., Kwasnoski, J. D., Lobanov, V. S., Myslik, J., Graf, E., Carver, T., Asel, E., Springer, B. A., Lane, P., and Salemme, F. R. (2001) High-density miniaturized thermal shift assays as a general strategy for drug discovery. J Biomol Screen 6, 429-40, and Matulis, D., Kranz, J. K., Salemme, F. R., and Todd, M. J. (2005) Thermodynamic stability of carbonic anhydrase: measurements of binding affinity and stoichiometry using ThermoFluor. Biochemistry 44, 5258-66). This approach is applicable to a wide variety of systems, and rigorous in theoretical interpretation through quantitation of equilibrium binding constants (KD).
The shift in the melting point described as a ΔTm is proportional to the concentration and affinity of the ligand. The compound potency may be compared as a rank order of either ΔTm values at a single compound concentration or in terms of KD values, estimated from concentration response curves.
RORγt ThermoFluor® Assay Construct
For the RORγt construct used in the ThermoFluor® assay, numbering for the nucleotide sequences was based on the reference sequence for human RORγt, transcript variant 2, NCBI Accession: NM_001001523.1 (SEQ ID NO:1). Nucleotides 850-1635 (SEQ ID NO:2) coding for the wild type human RORγt ligand binding domain (RORγt LBD) were cloned into the pHIS1 vector, a modified pET E. coli expression vector (Accelagen, San Diego), containing an in-frame N-terminal His-tag and a TurboTEV protease cleavage site (ENLYFQG, SEQ ID NO:3) upstream of the cloned insert sequence. The amino acid sequence for the RORγt construct used in the Thermofluor® assay is shown as SEQ ID NO:4.
ThermoFluor® experiments were carried out using instruments owned by Janssen Research and Discovery, L.L.C. through its acquisition of 3-Dimensional Pharmaceuticals, Inc. 1,8-ANS (Invitrogen) was used as a fluorescent dye. Protein and compound solutions are dispensed into black 384-well polypropylene PCR microplates (Abgene) and overlayed with silicone oil (1 μL, Fluka, type DC 200) to prevent evaporation.
Bar-coded assay plates are robotically loaded onto a thermostatically controlled PCR-type thermal block and then heated at a typical ramp-rate of 1° C./min for all experiments. Fluorescence was measured by continuous illumination with UV light (Hamamatsu LC6) supplied via fiber optic and filtered through a band-pass filter (380-400 nm; >6 OD cutoff). Fluorescence emission of the entire 384-well plate was detected by measuring light intensity using a CCD camera (Sensys, Roper Scientific) filtered to detect 500±25 nm, resulting in simultaneous and independent readings of all 384 wells. Images were collected at each temperature, and the sum of the pixel intensity in a given area of the assay plate was recorded versus temperature. Reference wells contained RORγt without compounds, and the assay conditions were as follows: • 0.065 mg/mL RORγt • 60 μM 1,8-ANS • 100 mM Hepes, pH 7.0 • 10 mM NaCl • 2.5 mM GSH • 0.002% Tween-20
Project compounds were arranged in a pre-dosed mother plate (Greiner Bio-one) wherein compounds are serially diluted in 100% DMSO by 1:2 from a high concentration of 10 mM over 12 columns within a series (column 12 is a reference well containing DMSO, no compound). The compounds were robotically dispensed directly into assay plates (×=46 nL) using a Hummingbird capillary liquid handling instrument (Digilab). Following compound dispense, protein and dye in buffer was added to achieve the final assay volume of 3 μL, followed by 1 μL of silicone oil.

The target of a further test is full-length human RORγt (Homo sapiens (Human), UniProt P51449). The test can be described thus: RORγt (full-length human) reporter assay, Conditions B or C. Format: cell-based. The note with it: for inhibition at 3 µM: at 3 μM compound concentration, read-out: RORγt (FL) Reporter Assay B or C, % inhibition; for IC50: read-out: RORγt (FL) Reporter Assay B or C, IC50; for RORγt (FL) Reporter Assay B or C, % inhibition (value marked *): marked *: footnote not given. From the text:
RORγt (Full-Length Human) Reporter Assay:
Cells used in this assay were transiently co-transfected with three different plasmids, one expressing the GAL4-DNA binding domain (DBD)-RORγt fusion protein under control of a CMV promoter (NH2-Gal4-DBD:RORC-COOH in pCMV-BD, Stratagene #211342), and two reporter plasmids—the firefly luciferase reporter under control of a GAL4 promoter (pFR-Luc 2×GAL4) and Renilla luciferase reporter under control of CMV promoter (pRL-CMV, Promega # E2261). The full-length coding sequence was used for human RORγt, i.e., nucleotides 142-1635 of human RORγt, transcript variant 2, NCBI Accession: NM_001001523.1 (SEQ ID NO:1). HEK293T cells were plated at 35,000 per well in 96-well plate in medium of DMEM with 10% FBS. After 18-22 hours incubation, the transfection was carried out by using a PEI solution with 170.5 ng total DNA/well (50 ng pCMV-BD-ROR plus 20 ng of pFR-Luc reporter and 0.5 ng of pRL-CMV reporter plus 100 ng Carrier DNA (Clontech #630440) for each well). 4-6 hours after transfection, cells were treated with compounds for overnight in the medium with final concentration of FBS 1.3% and DMSO 0.1%. After overnight (16 to 20 hours) incubation, media were removed and cells were lysed with 50 μL Glo Lysis Buffer (Promega) for 10-15 minutes followed by 10 minute incubation with 50 μL Dual Glo reagent (Promega) at room temperature. Firefly luciferase luminescence was measured using a BMG Pherastar plate reader. To each well, 50 μL Stop and Glo reagent was added and incubated for 10 minutes at room temperature. Renilla luminescence was measured using a BMG Pherastar plate reader. To calculate the effect of compounds on RORγt activity, firefly values were normalized against values of DMSO only and values of reference compound at saturating concentration, then further normalized against Renilla signals. IC50s were generated by plotting final Renilla normalized data against compound concentration and percent inhibition was calculated against DMSO control.
Cells used in this assay were transiently co-transfected with three different plasmids, one expressing the GAL4-DNA binding domain (DBD)-RORγt fusion protein under control of a CMV promoter (NH2-Gal4-DBD:RORC-COOH in pCMV-BD, Stratagene #211342), and two reporter plasmids—the firefly luciferase reporter under control of a GAL4 promoter (pFR-Luc 2×GAL4) and Renilla luciferase reporter under control of CMV promoter (pRL-CMV, Promega # E2261). The full-length coding sequence was used for human RORγt, i.e., nucleotides 142-1635 of human RORγt, transcript variant 2, NCBI Accession: NM_001001523.1 (SEQ ID NO:1). HEK293T cells were plated at 8750 cells per well in 384-well plate in medium of DMEM with 10% FBS. After 18-22 hours incubation, the transfection was carried out by using a PEI solution with 42.6 ng total DNA/well (12.5 ng pCMV-BD-ROR plus 5 ng of pFR-Luc reporter and 0.125 ng of pRL-CMV reporter plus 25 ng Carrier DNA (Clontech #630440) for each well). 4-6 hours after transfection, cells were treated with compounds for overnight in the medium with final concentration of FBS 1.3% and DMSO 0.1%. After overnight (16 to 20 hours) incubation, media were removed and cells were lysed with 20 μL Glo Lysis Buffer (Promega) for 10-15 minutes followed by 10 minute incubation with 20 μL Dual Glo reagent (Promega) at room temperature. Firefly luciferase luminescence was measured using a BMG Pherastar plate reader. To each well, 20 μL Stop and Glo reagent was added and incubated for 10 minutes at room temperature. Renilla luminescence was measured using a BMG Pherastar plate reader. To calculate the effect of compounds on RORγt activity, firefly values were normalized against values of DMSO only and values of reference compound at saturating concentration, then further normalized against Renilla signals.

Like-named read-outs stand apart in the source and are kept apart here.

full-length human RORγt, sequence (P51449 other isoform, or with tags, fused parts or gaps): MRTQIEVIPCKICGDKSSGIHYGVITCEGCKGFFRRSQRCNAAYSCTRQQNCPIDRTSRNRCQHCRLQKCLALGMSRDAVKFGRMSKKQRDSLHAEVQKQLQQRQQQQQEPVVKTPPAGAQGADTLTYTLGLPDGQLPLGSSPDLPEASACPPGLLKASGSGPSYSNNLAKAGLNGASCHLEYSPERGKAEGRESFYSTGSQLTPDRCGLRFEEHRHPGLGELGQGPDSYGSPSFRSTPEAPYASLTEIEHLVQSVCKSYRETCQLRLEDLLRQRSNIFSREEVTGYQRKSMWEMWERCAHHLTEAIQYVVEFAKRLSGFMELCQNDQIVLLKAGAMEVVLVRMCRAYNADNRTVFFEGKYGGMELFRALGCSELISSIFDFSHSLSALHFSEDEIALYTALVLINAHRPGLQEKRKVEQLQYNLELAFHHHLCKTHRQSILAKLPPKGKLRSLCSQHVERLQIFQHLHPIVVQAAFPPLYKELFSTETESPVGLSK
human RORγt ligand binding domain (RORγt LBD), sequence (P51449 other isoform, or with tags, fused parts or gaps): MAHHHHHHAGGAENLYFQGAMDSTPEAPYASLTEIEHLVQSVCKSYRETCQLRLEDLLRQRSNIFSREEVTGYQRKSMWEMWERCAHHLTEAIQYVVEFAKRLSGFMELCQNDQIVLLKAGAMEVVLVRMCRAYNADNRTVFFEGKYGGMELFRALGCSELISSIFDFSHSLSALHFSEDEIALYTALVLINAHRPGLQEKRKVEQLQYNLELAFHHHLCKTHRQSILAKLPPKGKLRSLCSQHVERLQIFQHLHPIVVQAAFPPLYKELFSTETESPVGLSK

Regarding `CC[C@H](Nc1cc(C(F)F)c(-c2sc(C(=O)N3CC4(COC4)C3)nc2C(=O)N2CCC[C@@H]2C)cn1)C(F)(F)F` [Example 384, [5-[4-(Difluoromethyl)-6-[[(1S)-1-(trifluoromethyl)propyl]amino]-3-pyridyl]-2-(6-oxa-2-azaspiro[3.3]heptane-2-carbonyl)thiazol-4-yl]-[(2S)-2-methylpyrrolidin-1-yl]methanone], the Kd in test [1] was determined as 5 nM. Also, at full-length human RORγt, the inhibition at 3 µM turned out to be 98% and the IC50 is 70 nM.

On to `C[C@H](Nc1cc(C(F)F)c(-c2sc(C(=O)N[C@H]3CC[C@H]3O)nc2C(=O)N2CCC[C@@H]2C)cn1)C(F)(F)F` (relative stereo) [Example 390, 5-(4-(Difluoromethyl)-6-(((S)-1,1,1-trifluoropropan-2-yl)amino)pyridin-3-yl)-N-((1S*,2R*)-2-hydroxycyclobutyl)-4-((S)-2-methylpyrrolidine-1-carbonyl)thiazole-2-carboxamide], for which the Kd in test [1] came to 12 nM. Besides, on full-length human RORγt, the inhibition at 3 µM was 99% and the IC50 is 28 nM.

In the case of `C[C@@H](CO)NC(=O)c1nc(C(=O)N2CCC[C@@H]2C)c(-c2cnc(NC(C)(C)C)cc2C(F)(F)F)s1` [Example 362, 5-[6-(tert-Butylamino)-4-(trifluoromethyl)-3-pyridyl]-N-[(1S)-2-hydroxy-1-methyl-ethyl]-4-[(2S)-2-methylpyrrolidine-1-carbonyl]thiazole-2-carboxamide], the Kd in test [1] was 4 nM. Further, on full-length human RORγt, the inhibition at 3 µM came to 99% and the half-maximal inhibitory concentration (IC50) was 21 nM.

As for `C[C@H](O)[C@H](C)NC(=O)c1nc(C(=O)N2CCC[C@@H]2C)c(-c2cnc(NC(C)(C)C)cc2C(F)(F)F)s1` (relative stereo) [Example 236, 5-(6-(tert-Butylamino)-4-(trifluoromethyl)pyridin-3-yl)-N-((2S*,3S*)-3-hydroxybutan-2-yl)-4-((S)-2-methylpyrrolidine-1-carbonyl)thiazole-2-carboxamide], the Kd in test [1] was determined as 1.6 nM. For the same compound, at full-length human RORγt (Conditions B or C), the “RORγt (FL) Reporter Assay B or C, % inhibition (value marked *)” value is 122* % and the IC50 came out at 47 nM.

As to `C[C@H](Nc1cc(C(F)F)c(-c2sc(C(=O)NCC(C)(C)O)nc2C(=O)N2CCC[C@@H]2C)cn1)C(F)(F)F` [Example 145, 5-(4-(Difluoromethyl)-6-(((S)-1,1,1-trifluoropropan-2-yl)amino)pyridin-3-yl)-N-(2-hydroxy-2-methylpropyl)-4-((S)-2-methylpyrrolidine-1-carbonyl)thiazole-2-carboxamide], at full-length human RORγt (Conditions B or C, marked ***: footnote not given), the “RORγt (FL) Reporter Assay B or C, % inhibition (value marked ***)” value is reported as 76*** %.

Take `C[C@H]1CCCN1C(=O)c1nc(C(=O)NCC(C)(C)O)sc1-c1cnc(NC2CCCCC2)c(C#N)c1` [Example 281, 5-[5-Cyano-6-(cyclohexylamino)-3-pyridyl]-N-(2-hydroxy-2-methyl-propyl)-4-[(2S)-2-methylpyrrolidine-1-carbonyl]thiazole-2-carboxamide]: on full-length human RORγt, the inhibition at 3 µM stood at 98% and the IC50 worked out at 830 nM.

As for `[2H]C([2H])(NC(=O)c1nc(C(=O)N2CCC[C@@H]2C)c(-c2cnc(N[C@@H](CC)C(F)(F)F)cc2C(F)F)s1)C(C)(C)O` [Example 266, N-(1,1-Dideuterio-2-hydroxy-2-methyl-propyl)-5-[4-(difluoromethyl)-6-[[(1S)-1-(trifluoromethyl)propyl]amino]-3-pyridyl]-4-[(2S)-2-methylpyrrolidine-1-carbonyl]thiazole-2-carboxamide], the inhibition at 3 µM on full-length human RORγt amounted to 100%.

For `[2H]C([2H])(NC(=O)c1nc(C(=O)N2CCC[C@@H]2C)c(-c2cnc(N[C@@H](C)C(F)(F)F)cc2C(F)F)s1)C(C)(C)O` [Example 286, 5-(4-(Difluoromethyl)-6-(((S)-1,1,1-trifluoropropan-2-yl)amino)pyridin-3-yl)-N-(2-hydroxy-2-methylpropyl-1,1-d2)-4-((S)-2-methylpyrrolidine-1-carbonyl)thiazole-2-carboxamide], the inhibition at 3 µM at full-length human RORγt worked out at 104%.

As for `CC[C@H](Nc1cc(C(F)F)c(-c2sc(C(=O)NCC(C)(C)O)nc2C(=O)N2CCC[C@@H]2C)cn1)C(F)(F)F` [Example 92, 5-(4-(Difluoromethyl)-6-(((S)-1,1,1-trifluorobutan-2-yl)amino)pyridin-3-yl)-N-(2-hydroxy-2-methylpropyl)-4-((S)-2-methylpyrrolidine-1-carbonyl)thiazole-2-carboxamide], at full-length human RORγt (Conditions B or C), the “RORγt (FL) Reporter Assay B or C, % inhibition (value marked *)” value is 106* %.
